Reference: patent US9695155B2, “Herbicidal substituted pyrimidinyloxy benzene compounds” (E. I. DU PONT DE NEMOURS AND COMPANY, priority 2013, dated 2017)

Columns and labels:
[1] = system: kochia; experiment: Test E preemergence; type: in vivo, Kochia scoparia; conditions: for Kochia plant response rating: scale 0 to 100 (0 no effect, 100 complete control); for Plant response rating, Kochia: scale 0 to 100, 0 no effect, 100 complete control
Summary of the method: (§1)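 Response was scored visually on a 0-100 scale (100 = complete control) versus controls after 14 to 21 days in the greenhouse. Test chemicals, formulated with surfactant in a non-phytotoxic solvent mixture, had been applied preemergence to seeds in silt loam soil or postemergence to 1- to 4-leaf plants in potting medium.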

[2] = system: ragweed; experiment: Test E preemergence; type: in vivo, Ambrosia elatior; conditions: for Ragweed plant response rating: scale 0 to 100 (0 no effect, 100 complete control); for Plant response rating, Ragweed: scale 0 to 100, 0 no effect, 100 complete control
Summary of the method: as §1

[3] = system: waterhemp; experiment: Test E preemergence; type: in vivo, Amaranthus rudis; conditions: for Waterhemp plant response rating: scale 0 to 100 (0 no effect, 100 complete control); for Plant response rating, Waterhemp: scale 0 to 100, 0 no effect, 100 complete control
Summary of the method: as §1

[4] = system: goosegrass; experiment: Test E preemergence; type: in vivo, Eleusine indica; conditions: for Goosegrass plant response rating: scale 0 to 100 (0 no effect, 100 complete control); for Plant response rating, Goosegrass: scale 0 to 100, 0 no effect, 100 complete control
Summary of the method: as §1

[5] = system: arrowleaf sida; experiment: Test E preemergence; type: in vivo, Sida rhombifolia; conditions: for Arrowleaf Sida plant response rating: scale 0 to 100 (0 no effect, 100 complete control); for Plant response rating, Arrowleaf Sida: scale 0 to 100, 0 no effect, 100 complete control
Summary of the method: as §1

[6] = system: arrowleaf sida; experiment: Test E postemergence; type: in vivo, Sida rhombifolia; conditions: Postemergence, scale 0 to 100
Summary of the method: as §1

[7] = system: Italian ryegrass; experiment: Test E postemergence; type: in vivo, Lolium multiflorum; conditions: Postemergence, scale 0 to 100
Summary of the method: as §1

[8] = system: corn; experiment: Test E preemergence; type: in vivo, Zea mays; conditions: for Corn plant response rating: scale 0 to 100 (0 no effect, 100 complete control); for Plant response rating, Corn: scale 0 to 100, 0 no effect, 100 complete control
Summary of the method: as §1

[9] = system: velvetleaf; experiment: Test E preemergence; type: in vivo, Abutilon theophrasti; conditions: for Velvetleaf plant response rating: scale 0 to 100 (0 no effect, 100 complete control); for Plant response rating, Velvetleaf: scale 0 to 100, 0 no effect, 100 complete control
Summary of the method: as §1

[10] = system: surinam grass; experiment: Test E preemergence; type: in vivo, Brachiaria decumbens; conditions: for Surinam Grass plant response rating: scale 0 to 100 (0 no effect, 100 complete control); for Plant response rating, Surinam Grass: scale 0 to 100, 0 no effect, 100 complete control
Summary of the method: as §1

[11] = system: barnyardgrass; experiment: Test E postemergence; type: in vivo, Echinochloa crus-galli; conditions: Postemergence, scale 0 to 100
Summary of the method: as §1

[12] = system: soybean; experiment: Test E preemergence; type: in vivo, Glycine max; conditions: for Soybean plant response rating: scale 0 to 100 (0 no effect, 100 complete control); for Plant response rating, Soybean: scale 0 to 100, 0 no effect, 100 complete control
Summary of the method: as §1

[13] = system: lambsquarters; experiment: Test E preemergence; type: in vivo, Chenopodium album; conditions: for Lambsquarters plant response rating: scale 0 to 100 (0 no effect, 100 complete control); for Plant response rating, Lambsquarters: scale 0 to 100, 0 no effect, 100 complete control
Summary of the method: as §1

[14] = system: field bindweed; experiment: Test E preemergence; type: in vivo, Convolvulus arvensis; conditions: for Field Bindweed plant response rating: scale 0 to 100 (0 no effect, 100 complete control); for Plant response rating, Field Bindweed: scale 0 to 100, 0 no effect, 100 complete control
Summary of the method: as §1

[15] = system: wild poinsettia; experiment: Test E postemergence; type: in vivo, Euphorbia heterophylla; conditions: Postemergence, scale 0 to 100
Summary of the method: as §1

[16] = system: Brazilian crabgrass; experiment: Test E postemergence; type: in vivo, Digitaria horizontalis; conditions: Postemergence, scale 0 to 100
Summary of the method: as §1

[17] = system: giant foxtail; experiment: Test E preemergence; type: in vivo, Setaria faberii; conditions: for Foxtail, Giant plant response rating: scale 0 to 100 (0 no effect, 100 complete control); for Plant response rating, Foxtail, Giant: scale 0 to 100, 0 no effect, 100 complete control
Summary of the method: as §1

With `N#Cc1cccc(Oc2ncc(Cl)cn2)c1-n1cc(Cl)cn1` [Compound 72] the “Kochia plant response rating” value ([1]; 16 g ai/ha) was 10, the “Kochia plant response rating” value ([1]; 31 g ai/ha) was 75 and the “Kochia plant response rating” value ([1]; 62 g ai/ha) was 98. For the same compound, the “Plant response rating, Kochia” value ([1]; 125 g ai/ha) was 100, the “Plant response rating, Kochia” value ([1]; 250 g ai/ha) was 100 and the “Ragweed plant response rating” value ([2]; 16 g ai/ha) was 0. For the same compound, the “Ragweed plant response rating” value ([2]; 31 g ai/ha) was 0, the “Ragweed plant response rating” value ([2]; 62 g ai/ha) was 5 and the “Plant response rating, Ragweed” value ([2]; 125 g ai/ha) was 50. For the same compound, the “Plant response rating, Ragweed” value ([2]; 250 g ai/ha) was 95, the “Waterhemp plant response rating” value ([3]; 16 g ai/ha) was 95 and the “Waterhemp plant response rating” value ([3]; 31 g ai/ha) was 98. The “Waterhemp plant response rating” value ([3]; 62 g ai/ha) was 100, the “Plant response rating, Waterhemp” value ([3]; 125 g ai/ha) was 100 and the “Plant response rating, Waterhemp” value ([3]; 250 g ai/ha) was 100. The “Goosegrass plant response rating” value ([4]; 16 g ai/ha) was 0, the “Goosegrass plant response rating” value ([4]; 31 g ai/ha) was 60 and the “Goosegrass plant response rating” value ([4]; 62 g ai/ha) was 80. The “Plant response rating, Goosegrass” value ([4]; 125 g ai/ha) was 98, the “Plant response rating, Goosegrass” value ([4]; 250 g ai/ha) was 100 and the “Arrowleaf Sida plant response rating” value ([5]; 16 g ai/ha, preemergence) was 20. For the same compound, the “Arrowleaf Sida plant response rating” value ([5]; 31 g ai/ha, preemergence) was 40, the “Plant response rating, Arrowleaf Sida” value ([5]; Preemergence, 62 g ai/ha) was 40 and the “Plant response rating, Arrowleaf Sida” value ([5]; preemergence, 125 g ai/ha) was 100. The “Plant response rating, Arrowleaf Sida” value ([5]; preemergence, 250 g ai/ha) was 100, the “Plant response rating, Arrowleaf Sida” value ([6]; 62 g ai/ha) was 50 and the “Plant response rating, Arrowleaf Sida” value ([6]; 125 g ai/ha) was 75. The “Plant response rating, Ryegrass, Italian” value ([7]; 62 g ai/ha) was 0, the “Plant response rating, Ryegrass, Italian” value ([7]; 125 g ai/ha) was 5 and the “Corn plant response rating” value ([8]; 16 g ai/ha) was 0. For the same compound, the “Corn plant response rating” value ([8]; 31 g ai/ha) was 0, the “Corn plant response rating” value ([8]; 62 g ai/ha) was 0 and the “Plant response rating, Corn” value ([8]; 125 g ai/ha) was 0. For the same compound, the “Plant response rating, Corn” value ([8]; 250 g ai/ha) was 0, the “Velvetleaf plant response rating” value ([9]; 16 g ai/ha) was 0 and the “Velvetleaf plant response rating” value ([9]; 31 g ai/ha) was 0. The “Velvetleaf plant response rating” value ([9]; 62 g ai/ha) was 40, the “Plant response rating, Velvetleaf” value ([9]; 125 g ai/ha) was 65 and the “Plant response rating, Velvetleaf” value ([9]; 250 g ai/ha) was 100. The “Surinam Grass plant response rating” value ([10]; 16 g ai/ha) was 20, the “Surinam Grass plant response rating” value ([10]; 31 g ai/ha) was 20 and the “Surinam Grass plant response rating” value ([10]; 62 g ai/ha) was 20. For the same compound, the “Plant response rating, Surinam Grass” value ([10]; 125 g ai/ha) was 10, the “Plant response rating, Surinam Grass” value ([10]; 250 g ai/ha) was 30 and the “Plant response rating, Barnyardgrass” value ([11]; 62 g ai/ha) was 0. The “Plant response rating, Barnyardgrass” value ([11]; 125 g ai/ha) was 10, the “Soybean plant response rating” value ([12]; 16 g ai/ha) was 0 and the “Soybean plant response rating” value ([12]; 31 g ai/ha) was 10. For the same compound, the “Soybean plant response rating” value ([12]; 62 g ai/ha) was 25, the “Plant response rating, Soybean” value ([12]; 125 g ai/ha) was 70 and the “Plant response rating, Soybean” value ([12]; 250 g ai/ha) was 90. For the same compound, the “Lambsquarters plant response rating” value ([13]; 16 g ai/ha) was 0, the “Lambsquarters plant response rating” value ([13]; 31 g ai/ha) was 90 and the “Lambsquarters plant response rating” value ([13]; 62 g ai/ha) was 100. For the same compound, the “Plant response rating, Lambsquarters” value ([13]; 125 g ai/ha) was 100, the “Plant response rating, Lambsquarters” value ([13]; 250 g ai/ha) was 100 and the “Field Bindweed plant response rating” value ([14]; 16 g ai/ha) was 0. The “Field Bindweed plant response rating” value ([14]; 31 g ai/ha) was 5, the “Field Bindweed plant response rating” value ([14]; 62 g ai/ha) was 10 and the “Plant response rating, Field Bindweed” value ([14]; 125 g ai/ha) was 60. For the same compound, the “Plant response rating, Field Bindweed” value ([14]; 250 g ai/ha) was 95, the “Plant response rating, Poinsettia, Wild” value ([15]; 62 g ai/ha) was 55 and the “Plant response rating, Poinsettia, Wild” value ([15]; 125 g ai/ha) was 60. The “Plant response rating, Crabgrass, Brazil” value ([16]; 62 g ai/ha) was 10, the “Plant response rating, Crabgrass, Brazil” value ([16]; 125 g ai/ha) was 20 and the “Foxtail, Giant plant response rating” value ([17]; 16 g ai/ha) was 35. The “Foxtail, Giant plant response rating” value ([17]; 31 g ai/ha) was 35, the “Foxtail, Giant plant response rating” value ([17]; 62 g ai/ha) was 95 and the “Plant response rating, Foxtail, Giant” value ([17]; 125 g ai/ha) was 98. The “Plant response rating, Foxtail, Giant” value ([17]; 250 g ai/ha) was 100.
